Results reported in US10144758B2, “Deuterated bile acids” (Metselex, Inc., priority 2013, dated 2018).

Test system: primary rat hepatocytes
Assay: DCA-induced cytotoxicity, LDH release
Format: cell-based
Method: Primary rat hepatocytes were isolated from male rats (100-150 grams) by collagenase perfusion (as described by Solá S, et al., 2003, Journal of Biological Chemistry 278: 48831-48838)). Briefly, rats were anesthetized with phenobarbital sodium (100 mg/kg body weight) injected into the peritoneal cavity. After administration of heparin (200 units/kg body weight) in the tail vein, the animal's abdomen was opened and the portal vein exposed and cannulated. The liver was then perfused at 37° C. in situ with a calcium-free Hanks' Balanced Salt Solution (HBSS) for about 10 minutes, and then with 0.05% collagenase type IV in calcium-present HBSS for another 10 minutes. Hepatocyte suspensions were obtained by passing collagenase-digested livers through 125 μm gauze and washing cells in Complete William's E medium (William's E medium, Sigma-Aldrich Corp., St Louis, Mo., USA) supplemented with 26 mM sodium bicarbonate, 23 mM HEPES, 0.01 units/mL insulin, 2 mM L-glutamine, 10 nM dexamethasone, 100 units/mL penicillin, and 10% heat-inactivated fetal bovine serum (Invitrogen Corp., Carlsbad, Calif., USA). Viable primary rat hepatocytes were enriched by low-speed centrifugation at 200 g for 3 minutes. Cell viability was determined by trypan blue exclusion and was typically 80-85%. After isolation, hepatocytes were resuspended in Complete William's E medium and plated on PrimariaTM tissue culture dishes (BD Biosciences, San Jose, Calif., USA) at 5×10^4 cells/cm^2. Cells were maintained at 37° C. in a humidified atmosphere of 5% CO2 for 6 hours to allow attachment. Plates were then washed with medium to remove dead cells and incubated in Complete William's E medium supplemented with either 100-400 μM UDCA (Sigma-Aldrich Corp.), 100-400 μM deuterated UDCA (compound 5), or no addition (control). Eight hours after pre-incubation, cells were exposed to 1 nM recombinant human TGF-β1 (R&D Systems Inc., Minneapolis, Minn., USA) for 36 hours, or to 50 or 100 μM DCA for 16 hours before processing for cell viability, cytotoxicity and apoptosis assays. The ApoTox-GloTM Triplex Assay (Promega Corp., Madison, Wis., USA) was used to evaluate cell viability, cytotoxicity and caspase-3/7 activity, according to the manufacturer's protocol, using a GloMax+ Multi Detection System (Promega Corp.). General cell death was also evaluated using the lactate dehydrogenase (LDH) Cytotoxicity Detection Kit^PLUS (Roche Diagnostics GmbH, Mannheim, Germany), following the manufacturer's instructions. FIG. 7 illustrates that Compound 5 prevents DCA-induced cytotoxicity and apoptosis in primary rat hepatocytes. […] Results are expressed as means±SEM of at least three experiments. *p<0.01 from control; § p<0.05 and †p<0.01 from respective DCA.

Compound	inhibition of DCA-induced LDH release (50 μM DCA 16 hours, 100 μM compound pre-incubated 8 hours, FIG. 7A) [%]	protective effect on LDH release greater than UDCA (50 μM DCA, Compound 5 versus UDCA)	protection against DCA-induced LDH release (100 μM DCA, compared with 50 μM DCA)	inhibition at 100 µM (Rattus norvegicus, Hepatocyte, 50 μM DCA 16 hours, 100 μM compound pre-incubated 8 hours, FIG. 7A) [%]
7,8-[^2H]-3α,7α-dihydroxy-5β-cholan-24-oic acid/7-[^2H]-3α,7α-dihydroxy-5β-cholan-24-oic acid [Compound 5]	90	more than 10%	Slightly reduced protection	–
C[C@H](CCC(=O)O)[C@H]1CC[C@H]2[C@@H]3[C@@H](O)C[C@@H]4C[C@H](O)CC[C@]4(C)[C@H]3CC[C@]12C [UDCA, Ursodeoxycholic acid, reference compound]	–	–	–	70
